# Results published in US20230391768A2, “IMIDAZOPYRIDINE DERIVATIVES AND AZA-IMIDAZOPYRIDINE DERIVATIVES AS JANUS KINASE 2 INHIBITORS AND USES THEREOF” (Dana-Farber Cancer Institute, Inc., priority 2018, published 2023).
# Tested on: cell lines or patient-derived xenografts from patients with CRLF2-rearranged B-ALL
# Assay: not given
# Details: cited from earlier work
row,SMILES,IC50 [µM]
1,N#CC[C@H](C1CCCC1)n1cc(-c2ncnc3[nH]ccc23)cn1 [Ruxolitinib],> 20

# Biological target: JAK2 (Homo sapiens (Human), UniProt O60674)
# Sequence (O60674 whole entry): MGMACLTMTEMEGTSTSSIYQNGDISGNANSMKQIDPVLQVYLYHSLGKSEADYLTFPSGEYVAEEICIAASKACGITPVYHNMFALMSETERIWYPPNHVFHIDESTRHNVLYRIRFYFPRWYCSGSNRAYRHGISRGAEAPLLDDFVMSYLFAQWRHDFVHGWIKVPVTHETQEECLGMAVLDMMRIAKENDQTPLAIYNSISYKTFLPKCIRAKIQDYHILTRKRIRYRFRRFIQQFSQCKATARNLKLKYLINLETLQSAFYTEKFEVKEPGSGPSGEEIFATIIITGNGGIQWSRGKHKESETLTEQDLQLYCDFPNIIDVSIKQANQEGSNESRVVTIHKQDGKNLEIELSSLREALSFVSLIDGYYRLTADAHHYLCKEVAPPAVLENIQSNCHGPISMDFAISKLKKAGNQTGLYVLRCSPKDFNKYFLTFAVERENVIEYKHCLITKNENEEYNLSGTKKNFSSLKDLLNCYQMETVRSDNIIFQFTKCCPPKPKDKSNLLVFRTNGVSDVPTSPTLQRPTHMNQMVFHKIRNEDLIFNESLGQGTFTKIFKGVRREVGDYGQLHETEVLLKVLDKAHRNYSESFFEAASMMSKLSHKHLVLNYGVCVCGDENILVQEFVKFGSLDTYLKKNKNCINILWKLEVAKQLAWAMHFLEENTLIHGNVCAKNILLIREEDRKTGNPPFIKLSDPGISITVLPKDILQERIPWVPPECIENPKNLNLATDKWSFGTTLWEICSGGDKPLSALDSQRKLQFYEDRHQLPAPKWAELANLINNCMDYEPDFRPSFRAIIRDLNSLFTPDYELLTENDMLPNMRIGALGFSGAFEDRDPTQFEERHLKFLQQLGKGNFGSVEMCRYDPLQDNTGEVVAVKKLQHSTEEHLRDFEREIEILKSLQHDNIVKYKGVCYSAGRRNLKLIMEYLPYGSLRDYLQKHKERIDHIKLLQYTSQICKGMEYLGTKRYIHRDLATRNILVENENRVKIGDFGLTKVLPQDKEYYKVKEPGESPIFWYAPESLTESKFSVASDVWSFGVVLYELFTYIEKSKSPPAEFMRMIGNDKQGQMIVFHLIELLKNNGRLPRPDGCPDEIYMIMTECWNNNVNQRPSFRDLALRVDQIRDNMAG
# Assay: JAK2 Z-Lyte biochemical assay
# Details: commercial JAK2 Z-Lyte assay from Invitrogen
# Protocol: The JAK2 Z-Lyte biochemical assay was performed according to manufacturer's instructions (Life Technologies).
row,SMILES,IC50 [nM]
1,"CCN1CCN(Cc2cc(NC(=O)c3ccc(C)c(-c4ccn5nc(NC(=O)C6CC6)nc5c4)c3)cc(C(F)(F)F)c2)CC1 [Compound I-3, 3-(2-(cyclopropanecarboxamido)-[1,2,4]triazolo[1,5-a]pyridin-7-yl)-N-(3-((4-ethylpiperazin-1-yl)methyl)-5-(trifluoromethyl)phenyl)-4-methylbenzamide]",981
2,"Cc1ccc(C(=O)Nc2cc(CN3CCN(CC4CC4)CC3)cc(C(F)(F)F)c2)cc1-c1ccc2nc(NC(=O)C3CC3)cn2n1 [Compound I-14, 3-(2-(cyclopropanecarboxamido)imidazo[1,2-b]pyridazin-6-yl)-N-(3-((4-(cyclopropylmethyl)piperazin-1-yl)methyl)-5-(trifluoromethyl)phenyl)-4-methylbenzamide]",772
3,"CCN1CCN(Cc2ccc(NC(=O)c3ccc(C)c(-c4ccc5nc(NC(=O)C6CC6)cn5n4)c3)cc2C(F)(F)F)CC1 [Compound I-15, 3-(2-(cyclopropanecarboxamido)imidazo[1,2-b]pyridazin-6-yl)-N-(4-((4-ethylpiperazin-1-yl)methyl)-3-(trifluoromethyl)phenyl)-4-methylbenzamide]",1100
4,"CCN1CCN(Cc2ccc(NC(=O)c3ccc(C)c(-c4ccc5nc(NC(=O)C6CC6)cn5c4)c3)cc2C(F)(F)F)CC1 [Compound I-7, 3-(2-(cyclopropanecarboxamido)imidazo[1,2-a]pyridin-6-yl)-N-(4-((4-ethylpiperazin-1-yl)methyl)-3-(trifluoromethyl)phenyl)-4-methylbenzamide]",672
5,"CCOC(=O)N1CCN(Cc2cc(NC(=O)c3ccc(C)c(-c4ccc5nc(NC(=O)C6CC6)cn5n4)c3)cc(C(F)(F)F)c2)CC1 [Compound I-13, ethyl 4-(3-(3-(2-(cyclopropanecarboxamido)imidazo[1,2-b]pyridazin-6-yl)-4-methylbenzamido)-5-(trifluoromethyl)benzyl)piperazine-1-carboxylate]",3180
6,"CCN1CCN(Cc2cc(NC(=O)c3ccc(C)c(-c4ccc5nc(NC(=O)C6CC6)nn5c4)c3)cc(C(F)(F)F)c2)CC1 [Compound I-1, 3-(2-(cyclopropanecarboxamido)-[1,2,4]triazolo[1,5-a]pyridin-6-yl)-N-(3-((4-ethylpiperazin-1-yl)methyl)-5-(trifluoromethyl)phenyl)-4-methylbenzamide]",508
7,"CCN1CCN(Cc2cc(NC(=O)c3ccc(C)c(-c4ccc5c(c4)nc(NC(=O)C4CC4)n5C)c3)cc(C(F)(F)F)c2)CC1 [Compound I-26, 3-(2-(cyclopropanecarboxamido)-1-methyl-1H-benzo[d]imidazol-5-yl)-N-(3-((4-ethylpiperazin-1-yl)methyl)-5-(trifluoromethyl)phenyl)-4-methylbenzamide]",> 10000
8,"CCN1CCN(Cc2cc(NC(=O)c3cc(-c4ccc5nc(NC(=O)C6CC6)cn5n4)c(C)nc3O)cc(C(F)(F)F)c2)CC1 [Compound I-21, 5-(2-(cyclopropanecarboxamido)imidazo[1,2-b]pyridazin-6-yl)-N-(3-((4-ethylpiperazin-1-yl)methyl)-5-(trifluoromethyl)phenyl)-2-hydroxy-6-methylnicotinamide]",> 10000
9,"CCN1CCN(Cc2cc(NC(=O)c3cc(-c4ccc5nc(NC(=O)C6CC6)cn5n4)c(C)cn3)cc(C(F)(F)F)c2)CC1 [Compound I-18, 4-(2-(cyclopropanecarboxamido)imidazo[1,2-b]pyridazin-6-yl)-N-(3-((4-ethylpiperazin-1-yl)methyl)-5-(trifluoromethyl)phenyl)-5-methylpicolinamide]",985
10,"CCN1CCN(Cc2cc(C(=O)Nc3ccc(C)c(-c4ccc5nc(NC(=O)C6CC6)cn5c4)c3)cc(C(F)(F)F)c2)CC1 [Compound I-8, N-(3-(2-(cyclopropanecarboxamido)imidazo[1,2-a]pyridin-6-yl)-4-methylphenyl)-3-((4-ethylpiperazin-1-yl)methyl)-5-(trifluoromethyl)benzamide]",824
11,"Cc1ccc(C(=O)Nc2cc(CN3CCNCC3)cc(C(F)(F)F)c2)cc1-c1ccc2nc(NC(=O)C3CC3)cn2n1 [Compound I-9, 3-(2-(cyclopropanecarboxamido)imidazo[1,2-b]pyridazin-6-yl)-4-methyl-N-(3-(piperazin-1-ylmethyl)-5-(trifluoromethyl)phenyl)benzamide]",301
12,"CCN1CCN(Cc2cc(NC(=O)c3cc(-c4ccc5nc(NC(=O)C6CC6)cn5n4)c(C)cc3F)cc(C(F)(F)F)c2)CC1 [Compound I-17, 5-(2-(cyclopropanecarboxamido)imidazo[1,2-b]pyridazin-6-yl)-N-(3-((4-ethylpiperazin-1-yl)methyl)-5-(trifluoromethyl)phenyl)-2-fluoro-4-methylbenzamide]",934
13,"CCN1CCN(Cc2cc(NC(=O)c3cc(-c4ccc5nc(NC(=O)C6CC6)cn5n4)c(C)cc3C)cc(C(F)(F)F)c2)CC1 [Compound I-19, 5-(2-(cyclopropanecarboxamido)imidazo[1,2-b]pyridazin-6-yl)-N-(3-((4-ethylpiperazin-1-yl)methyl)-5-(trifluoromethyl)phenyl)-2,4-dimethylbenzamide]",8760
14,"CCS(=O)(=O)N1CCN(Cc2cc(NC(=O)c3ccc(C)c(-c4ccc5nc(NC(=O)C6CC6)cn5n4)c3)cc(C(F)(F)F)c2)CC1 [Compound I-11, 3-(2-(cyclopropanecarboxamido)imidazo[1,2-b]pyridazin-6-yl)-N-(3-((4-(ethylsulfonyl)piperazin-1-yl)methyl)-5-(trifluoromethyl)phenyl)-4-methylbenzamide]",2620
15,"CCN1CCN(Cc2cc(NC(=O)c3ccc(C)c(-c4ccc5[nH]c(NC(=O)C6CC6)nc5n4)c3)cc(C(F)(F)F)c2)CC1 [Compound I-27, 3-(2-(cyclopropanecarboxamido)-1H-imidazo[4,5-b]pyridin-5-yl)-N-(3-((4-ethylpiperazin-1-yl)methyl)-5-(trifluoromethyl)phenyl)-4-methylbenzamide]",1530
16,"CCN1CCN(Cc2cc(NC(=O)c3ccc(C)c(-c4ccc5nc(N)cn5n4)c3)cc(C(F)(F)F)c2)CC1 [Compound I-24, 3-(2-aminoimidazo [1,2-b]pyridazin-6-yl)-N-(3-((4-ethylpiperazin-1-yl)methyl)-5-(trifluoromethyl)phenyl)-4-methylbenzamide]",> 3330
17,"CCN1CCN(Cc2cc(NC(=O)c3ccc(C)c(-c4cnc5nc(NC(=O)C6CC6)cn5c4)c3)cc(C(F)(F)F)c2)CC1 [Compound I-5, 3-(2-(cyclopropanecarboxamido)imidazo[1,2-a]pyrimidin-6-yl)-N-(3-((4-ethylpiperazin-1-yl)methyl)-5-(trifluoromethyl)phenyl)-4-methylbenzamide]",9510
18,"CCc1ccc(C(=O)Nc2cc(CN3CCN(CC)CC3)cc(C(F)(F)F)c2)cc1-c1ccc2nc(NC(=O)C3CC3)cn2n1 [Compound I-20, 3-(2-(cyclopropanecarboxamido)imidazo[1,2-b]pyridazin-6-yl)-4-ethyl-N-(3-((4-ethylpiperazin-1-yl)methyl)-5-(trifluoromethyl)phenyl)benzamide]",399
19,"CCN1CCN(Cc2cc(NC(=O)c3ccc(C)c(-c4cn5cc(NC(=O)C6CC6)nc5cn4)c3)cc(C(F)(F)F)c2)CC1 [Compound I-4, 3-(2-(cyclopropanecarboxamido)imidazo[1,2-a]pyrazin-6-yl)-N-(3-((4-ethylpiperazin-1-yl)methyl)-5-(trifluoromethyl)phenyl)-4-methylbenzamide]",950
20,"COCCN1CCN(Cc2cc(NC(=O)c3ccc(C)c(-c4ccc5nc(NC(=O)C6CC6)cn5n4)c3)cc(C(F)(F)F)c2)CC1 [Compound I-12, 3-(2-(cyclopropanecarboxamido)imidazo[1,2-b]pyridazin-6-yl)-N-(3-((4-(2-methoxyethyl)piperazin-1-yl)methyl)-5-(trifluoromethyl)phenyl)-4-methylbenzamide]",1820
21,"CC(=O)N1CCN(Cc2cc(NC(=O)c3ccc(C)c(-c4ccc5nc(NC(=O)C6CC6)cn5n4)c3)cc(C(F)(F)F)c2)CC1 [Compound I-10, N-(3-((4-acetylpiperazin-1-yl)methyl)-5-(trifluoromethyl)phenyl)-3-(2-(cyclopropanecarboxamido)imidazo[1,2-b]pyridazin-6-yl)-4-methylbenzamide]",1350
22,"CCN1CCN(Cc2cc(NC(=O)c3ccc(C(F)(F)F)c(-c4ccc5nc(NC(=O)C6CC6)cn5n4)c3)cc(C(F)(F)F)c2)CC1 [Compound I-22, 3-(2-(cyclopropanecarboxamido)imidazo[1,2-b]pyridazin-6-yl)-N-(3-((4-ethylpiperazin-1-yl)methyl)-5-(trifluoromethyl)phenyl)-4-(trifluoromethyl)benzamide]",1900
23,"CCN1CCN(Cc2cc(NC(=O)c3cnc(C)c(-c4ccc5nc(NC(=O)C6CC6)cn5n4)c3)cc(C(F)(F)F)c2)CC1 [Compound I-16, 5-(2-(cyclopropanecarboxamido)imidazo[1,2-b]pyridazin-6-yl)-N-(3-((4-ethylpiperazin-1-yl)methyl)-5-(trifluoromethyl)phenyl)-6-methylnicotinamide]",486
24,"CCN1CCN(Cc2cc(NC(=O)c3ccc(C#N)c(-c4ccc5nc(NC(=O)C6CC6)cn5n4)c3)cc(C(F)(F)F)c2)CC1 [Compound I-23, 4-cyano-3-(2-(cyclopropanecarboxamido)imidazo[1,2-b]pyridazin-6-yl)-N-(3-((4-ethylpiperazin-1-yl)methyl)-5-(trifluoromethyl)phenyl)benzamide]",5120
25,"CCN1CCN(Cc2cc(NC(=O)c3ccc(C)c(-c4ccc5nc(NC(=O)C6CC6)n(C)c5c4)c3)cc(C(F)(F)F)c2)CC1 [Compound I-25, 3-(2-(cyclopropanecarboxamido)-1-methyl-1H-benzo[d]imidazol-6-yl)-N-(3-((4-ethylpiperazin-1-yl)methyl)-5-(trifluoromethyl)phenyl)-4-methylbenzamide]",7020
